Source: paper PMC6214108, “Synthesis and In Vitro Antitumor Activity of Novel Bivalent β-Carboline-3-carboxylic Acid Derivatives with DNA as a Potential Target” (International Journal of Molecular Sciences, 2018)

Columns and labels:
bcl-2 protein = experiment: Western blot of bcl-2 protein; format: cell-based; details: A549, 2, 4, and 8 μM, 48 h
Procedure: (§1) The level of cytochrome C (Cyt C) in mitochondria, and the expression of bcl-2 protein, were evaluated by western blot. A549 cells (1 × 10^6 cells per well) seeded into 6-well plates (JET, Guangzhou, China) were incubated with DMEM containing various concentrations (2, 4, and 8 μM) of β-carbolines (6i and 6u) for 48 h at 37 °C and 5% CO2. Then, the cells were lysed with RIPA lysis buffer for 30 min on ice (containing 1% PMSF), centrifuged at 12,000× g for 5 min at 4 °C, and then the supernatants were transferred to 1.5 mL EP tubes. Proteins were separated by sodium dodecyl sulfate-polyacrylamide gel electrophoresis (SDS-PAGE) and blotted on polyvinylidene difluoride (PVDF) membranes (Millipore, Burlington, MA, USA), as previously described. The membranes were blocked for 2 h at r.t. with 5% non-fat milk in TBST buffer (20 mM Tris-HCl,150 mM NaCl and 0.05% Tween-20, pH7.4), and then incubated with the mouse anti-bcl-2 monoclonal antibody (Sigma, Saint Louis, MO, USA), anti-cytochrome C monoclonal antibody (Beyotime, Haimen, China), and anti-β-actin antibody (1:4000 dilution; Abcam, Cambridge, MA, USA) overnight at 4 °C, and finally incubated with the peroxidase conjugated goat anti-mouse IgG (Jackson ImmunoResearch Laboratories, West Grove, PA, USA) at 37 °C for 1 h. […]

[1] = tested on: cytochrome C (Cyt C) in mitochondria; experiment: Western blot of cytochrome C in mitochondria; format: cell-based; details: A549, 2, 4, and 8 μM, 48 h
Procedure: as §1

calf thymus DNA (CT DNA) = experiment: UV-visible spectral study with CT DNA; format: binding; details: 10 μM compound, 200 nM CT DNA additions
Procedure: UV-visible spectroscopy was carried out to determine the binding mode of β-carboline derivatives to DNA (CT DNA) using UV-2500 spectrophotometer (Shimadzu, Kyoto, Japan) at 25 °C. Stock solutions of 10 mM β-carboline derivatives were dissolved in DMSO, and 10 μM CT DNA was prepared in 100 mM KBPES buffer (30 mM Potassium Phosphate with 100 mM KCl, pH 7.0). UV-visible absorption titrations were performed by adding 200 nM CT DNA solution to the quartz cuvette containing approximately 10 μM derivative solutions. UV-Visible absorption spectra were recorded from 200 nm to 350 nm.
Figure 5 UV-visible spectroscopy study of β-carbolines with calf thymus (CT) DNA. UV-visible absorption titrations were done by adding 200 nM CT DNA solution each time to the quartz cuvette containing 10 μM 4B, 6i, 4D, and 6u. The absorption spectra were recorded from 200 nm to 350 nm.

SMILES | Expression of bcl-2 protein, western blot (bcl-2 protein) | Level of Cyt C (in mitochondria), western blot [1] | Intercalation ability (UV-visible spectra with CT DNA) (calf thymus DNA (CT DNA))
O=C(OCCCCCOC(=O)c1cc2c3ccccc3n(Cc3ccccc3F)c2cn1)c1cc2c3ccccc3n(Cc3ccccc3F)c2cn1 [Compound 6u] | decreased in a dose-dependent manner | decreased in a dose-dependent manner | –
Cc1ccccc1Cn1c2ccccc2c2cc(C(=O)OCCCCCOC(=O)c3cc4c5ccccc5n(Cc5ccccc5C)c4cn3)ncc21 [Compound 6i] | decreased in a dose-dependent manner | decreased in a dose-dependent manner | –
COC(=O)c1cc2c3ccccc3n(Cc3ccccc3F)c2cn1 [Compound 4D] | – | – | very weak
